{"source": "patent US12077503B2", "about": "“Substituted cyclic amides and their use as herbicides” (FMC CORPORATION, priority 2015, dated 2024)", "assay_type_in_all_cases": "in vivo", "key": {"Kochia (Kochia scoparia) [1]": {"system": "Kochia (Kochia scoparia)", "test": "Test A preemergence", "details": "Bassia scoparia, pre-emergence, 240 h, 0 to 100 scale where 0 is no effect and 100 is complete control, read-out: Kochia plant response rating", "method_in_brief": "(§1)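 Each rating is a visual injury score from 0 to 100 given about 10 d after treatment, judged against untreated controls kept alongside in the greenhouse. In loam soil–sand blend, seeds got a preemergence directed soil spray, while postemergence plants were 2 to 10 cm tall at spraying.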"}, "[2]": {"system": "barnyardgrass (Echinochloa crus-galli)", "test": "Test A preemergence", "details": "Echinochloa crus-galli, pre-emergence, 240 h, 0 to 100 scale where 0 is no effect and 100 is complete control, read-out: Barnyardgrass plant response rating", "method_in_brief": "as §1"}, "[3]": {"system": "giant foxtail (Setaria faberii)", "test": "Test A preemergence", "details": "Setaria faberi, pre-emergence, 240 h, 0 to 100 scale where 0 is no effect and 100 is complete control, read-out: Foxtail, Giant plant response rating", "method_in_brief": "as §1"}, "[4]": {"system": "pigweed (Amaranthus retroflexus)", "test": "Test A preemergence", "details": "Amaranthus retroflexus, pre-emergence, 240 h, 0 to 100 scale where 0 is no effect and 100 is complete control, read-out: Pigweed plant response rating"}, "[5]": {"system": "ragweed (common ragweed, Ambrosia elatior)", "test": "Test A preemergence", "details": "Ambrosia artemisiifolia, pre-emergence, 240 h, 0 to 100 scale where 0 is no effect and 100 is complete control, read-out: Ragweed plant response rating", "method_in_brief": "as §1"}, "[6]": {"system": "ryegrass, Italian (Italian ryegrass, Lolium multiflorum)", "test": "Test A preemergence", "details": "Lolium multiflorum, pre-emergence, 240 h, 0 to 100 scale where 0 is no effect and 100 is complete control, read-out: Ryegrass, Italian plant response rating", "method_in_brief": "as §1"}, "[7]": {"system": "Galium (catchweed bedstraw, Galium aparine)", "test": "Test A postemergence", "details": "Galium, post-emergence, 240 h", "method_in_brief": "as §1"}, "Kochia (Kochia scoparia) [8]": {"system": "Kochia (Kochia scoparia)", "test": "Test A postemergence", "details": "Bassia scoparia, post-emergence, 240 h", "method_in_brief": "as §1"}, "[9]": {"system": "blackgrass (Alopecurus myosuroides)", "test": "Test A postemergence", "details": "Alopecurus myosuroides, post-emergence, 240 h", "method_in_brief": "as §1"}, "corn (Zea mays)": {"system": "corn (Zea mays)", "test": "Test A postemergence", "details": "Zea mays, post-emergence, 240 h", "method_in_brief": "as §1"}, "[10]": {"system": "giant foxtail (Setaria faberii)", "test": "Test A postemergence", "details": "Setaria faberi, post-emergence, 240 h", "method_in_brief": "as §1"}, "[11]": {"system": "pigweed (Amaranthus retroflexus)", "test": "Test A postemergence", "details": "Amaranthus retroflexus, post-emergence, 240 h", "method_in_brief": "as §1"}, "[12]": {"system": "ragweed (common ragweed, Ambrosia elatior)", "test": "Test A postemergence", "details": "Ambrosia artemisiifolia, post-emergence, 240 h", "method_in_brief": "as §1"}, "[13]": {"system": "ryegrass, Italian (Italian ryegrass, Lolium multiflorum)", "test": "Test A postemergence", "details": "Lolium multiflorum, post-emergence, 240 h", "method_in_brief": "as §1"}, "[14]": {"system": "wheat (Triticum aestivum)", "test": "Test A postemergence", "details": "Triticum aestivum, post-emergence, 240 h", "method_in_brief": "as §1"}, "[15]": {"system": "barnyardgrass (Echinochloa crus-galli)", "test": "Test B flooded paddy test", "details": "Echinochloa crus-galli, 250 g ai/ha, Flood; 0 to 100 scale where 0 is no effect and 100 is complete control; read-out: Barnyardgrass plant response rating", "method_in_brief": "(§2)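 Visual ratings (0 none to 100 complete control) are relative to untreated plants, taken 13–15 d after treatment in a greenhouse. Test material went straight into floodwater standing 3 cm above the soil, kept constant, on plants at the 2-leaf stage.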"}, "[16]": {"system": "ducksalad (Heteranthera limosa)", "test": "Test B flooded paddy test", "details": "Heteranthera limosa, 250 g ai/ha, Flood; 0 to 100 scale where 0 is no effect and 100 is complete control; read-out: Ducksalad plant response rating", "method_in_brief": "as §2"}, "rice (Oryra sativa)": {"system": "rice (Oryra sativa)", "test": "Test B flooded paddy test", "details": "Oryza sativa, 250 g ai/ha, Flood; 0 to 100 scale where 0 is no effect and 100 is complete control; read-out: Rice plant response rating", "method_in_brief": "as §2"}, "[17]": {"system": "sedge, umbrella (small-flower umbrella sedge, Cyperus difformis)", "test": "Test B flooded paddy test", "details": "Cyperus difformis, 250 g ai/ha, Flood; 0 to 100 scale where 0 is no effect and 100 is complete control; read-out: Sedge, Umbrella plant response rating", "method_in_brief": "as §2"}, "[18]": {"details": "125 g ai/ha, preemergence, approx. 10 d"}}}
{"smiles": "CN1C[C@H](c2cc(C(F)F)cs2)[C@@H](C(=O)Nc2cccc(F)n2)C1=O", "note": "[Compound 1090]", "values": [{"measurement": "pest or weed control at 31 g/ha", "setting": "Kochia (Kochia scoparia) [1]; 31 g ai/ha, Preemergence", "value": 20, "unit": "%"}, {"measurement": "pest or weed control at 125 g/ha", "setting": "Kochia (Kochia scoparia) [1]; [18]", "value": 30, "unit": "%"}, {"measurement": "pest or weed control at 31 g/ha", "setting": "[2]; 31 g ai/ha, Preemergence", "value": 10, "unit": "%"}, {"measurement": "pest or weed control at 125 g/ha", "setting": "[2]; [18]", "value": 90, "unit": "%"}, {"measurement": "pest or weed control at 31 g/ha", "setting": "[3]; 31 g ai/ha, Preemergence", "value": 60, "unit": "%"}, {"measurement": "pest or weed control at 125 g/ha", "setting": "[3]; [18]", "value": 100, "unit": "%"}, {"measurement": "pest or weed control at 31 g/ha", "setting": "[4]; 31 g ai/ha, Preemergence", "value": 0, "unit": "%"}, {"measurement": "pest or weed control at 125 g/ha", "setting": "[4]; [18]", "value": 0, "unit": "%"}, {"measurement": "pest or weed control at 31 g/ha", "setting": "[5]; 31 g ai/ha, Preemergence", "value": 0, "unit": "%"}, {"measurement": "pest or weed control at 125 g/ha", "setting": "[5]; [18]", "value": 0, "unit": "%"}, {"measurement": "pest or weed control at 31 g/ha", "setting": "[6]; 31 g ai/ha, Preemergence", "value": 30, "unit": "%"}, {"measurement": "pest or weed control at 125 g/ha", "setting": "[6]; [18]", "value": 0, "unit": "%"}, {"measurement": "pest or weed control at 125 g/ha", "setting": "[7]; 125 g ai/ha, postemergence, visual injury on 0 to 100 scale (0 no effect, 100 complete control), approx. 10 d, read-out: Galium plant response rating", "value": 30, "unit": "%"}, {"measurement": "pest or weed control at 31 g/ha", "setting": "[7]; Postemergence, 31 g ai/ha, visual injury after approx. 10 d, 0 to 100 scale, 0 no effect, 100 complete control, read-out: Plant response rating, Galium", "value": 30, "unit": "%"}, {"measurement": "pest or weed control at 125 g/ha", "setting": "Kochia (Kochia scoparia) [8]; 125 g ai/ha, postemergence, visual injury on 0 to 100 scale (0 no effect, 100 complete control), approx. 10 d, read-out: Kochia plant response rating", "value": 30, "unit": "%"}, {"measurement": "pest or weed control at 31 g/ha", "setting": "Kochia (Kochia scoparia) [8]; Postemergence, 31 g ai/ha, visual injury after approx. 10 d, 0 to 100 scale, 0 no effect, 100 complete control, read-out: Plant response rating, Kochia", "value": 0, "unit": "%"}, {"measurement": "pest or weed control at 125 g/ha", "setting": "[9]; 125 g ai/ha, postemergence, visual injury on 0 to 100 scale (0 no effect, 100 complete control), approx. 10 d, read-out: Blackgrass plant response rating", "value": 20, "unit": "%"}, {"measurement": "pest or weed control at 31 g/ha", "setting": "[9]; Postemergence, 31 g ai/ha, visual injury after approx. 10 d, 0 to 100 scale, 0 no effect, 100 complete control, read-out: Plant response rating, Blackgrass", "value": 0, "unit": "%"}, {"measurement": "plant injury at 125 g/ha", "setting": "corn (Zea mays); 125 g ai/ha, postemergence, visual injury on 0 to 100 scale (0 no effect, 100 complete control), approx. 10 d, read-out: Corn plant response rating", "value": 20, "unit": "%"}, {"measurement": "Corn plant response rating (crop injury, 0 = no effect, 100 = complete kill) at 31 g/ha", "setting": "corn (Zea mays); Postemergence, 31 g ai/ha, visual injury after approx. 10 d, 0 to 100 scale, 0 no effect, 100 complete control", "value": 0, "unit": "%"}, {"measurement": "pest or weed control at 125 g/ha", "setting": "[10]; 125 g ai/ha, postemergence, visual injury on 0 to 100 scale (0 no effect, 100 complete control), approx. 10 d, read-out: Foxtail, Giant plant response rating", "value": 80, "unit": "%"}, {"measurement": "pest or weed control at 31 g/ha", "setting": "[10]; Postemergence, 31 g ai/ha, visual injury after approx. 10 d, 0 to 100 scale, 0 no effect, 100 complete control, read-out: Plant response rating, Foxtail, Giant", "value": 20, "unit": "%"}, {"measurement": "pest or weed control at 125 g/ha", "setting": "[11]; 125 g ai/ha, postemergence, visual injury on 0 to 100 scale (0 no effect, 100 complete control), approx. 10 d, read-out: Pigweed plant response rating", "value": 0, "unit": "%"}, {"measurement": "pest or weed control at 31 g/ha", "setting": "[11]; Postemergence, 31 g ai/ha, visual injury after approx. 10 d, 0 to 100 scale, 0 no effect, 100 complete control, read-out: Plant response rating, Pigweed", "value": 0, "unit": "%"}, {"measurement": "pest or weed control at 125 g/ha", "setting": "[12]; 125 g ai/ha, postemergence, visual injury on 0 to 100 scale (0 no effect, 100 complete control), approx. 10 d, read-out: Ragweed plant response rating", "value": 0, "unit": "%"}, {"measurement": "pest or weed control at 31 g/ha", "setting": "[12]; Postemergence, 31 g ai/ha, visual injury after approx. 10 d, 0 to 100 scale, 0 no effect, 100 complete control, read-out: Plant response rating, Ragweed", "value": 0, "unit": "%"}, {"measurement": "pest or weed control at 125 g/ha", "setting": "[13]; 125 g ai/ha, postemergence, visual injury on 0 to 100 scale (0 no effect, 100 complete control), approx. 10 d, read-out: Ryegrass, Italian plant response rating", "value": 0, "unit": "%"}, {"measurement": "pest or weed control at 31 g/ha", "setting": "[13]; Postemergence, 31 g ai/ha, visual injury after approx. 10 d, 0 to 100 scale, 0 no effect, 100 complete control, read-out: Plant response rating, Ryegrass, Italian", "value": 0, "unit": "%"}, {"measurement": "plant injury at 125 g/ha", "setting": "[14]; 125 g ai/ha, postemergence, visual injury on 0 to 100 scale (0 no effect, 100 complete control), approx. 10 d, read-out: Wheat plant response rating", "value": 20, "unit": "%"}, {"measurement": "plant injury at 31 g/ha", "setting": "[14]; Postemergence, 31 g ai/ha, visual injury after approx. 10 d, 0 to 100 scale, 0 no effect, 100 complete control, read-out: Plant response rating, Wheat", "value": 0, "unit": "%"}, {"measurement": "pest or weed control at 250 g/ha", "setting": "[15]", "value": 80, "unit": "%"}, {"measurement": "pest or weed control at 250 g/ha", "setting": "[16]", "value": 95, "unit": "%"}, {"measurement": "pest or weed control at 250 g/ha", "setting": "rice (Oryra sativa)", "value": 0, "unit": "%"}, {"measurement": "pest or weed control at 250 g/ha", "setting": "[17]", "value": 0, "unit": "%"}]}
